Source: patent publication US20230172919A1, “AN INSULIN SENSITIZER FOR USE IN THE PREVENTION AND/OR TREATMENT OF THE DAMAGES CAUSED BY RETINAL DETACHMENT” (SORBONNE UNIVERSITE, priority 2020, published 2023)

Tests used:
[1] = tested on: PNA+CAR+ cones of C57BL/6J retinal explants; assay: Retinal explants culture, cone quantification; format: cell-based, mouse (C57BL/6J); conditions: 5-day retinal explants
Method: C57BL/6J retina were prepared and placed on polycarbonate filters floating on Dulbecco’s modified Eagle’s medium (DMEM, Thermo Fisher Scientific) with the photoreceptors facing down. For the experiment, retinal explants were cultured in high glucose (25 mM) DMEM alone or supplemented with human insulin (Umuline NPH), human insulin and insulin receptor inhibitor (Hydroxy-2-naphthalenylmethylphosphonic acid (HNMPA), Abcam) or vehicle (DMSO) at 37° C. […] For this reason, HNMPA was used at a concentration 10-fold higher than the IC50 (1 mM). Each culture medium was renewed every 36 hours and after 5 days, the retinal explants were carefully removed. Immunohistochemistry and cones quantification were then performed as described for retina below.
Eyes were enucleated, fixed in 4% paraformaldehyde for 1 hour at room temperature and sectioned at the limbus; the cornea and lens were discarded. […] The retinas were flat mounted and viewed with a fluorescence microscope (DM5500, Leica). […] Each cell population was manually counted in a masked fashion. IBA-1+ cells were quantified on flat mounts on the outer segment side of the detached retina while PNA+ cone arrestin+ cells were counted on confocal microscopy Z-stacks using ImageJ software.

[2] = tested on: RD-induced cone loss and subretinal IBA-1+ MPs in C57BL/6J mice; assay: Mouse model of RD (retinal detachment), retinal flat mount quantification; format: in vivo, mouse (C57BL/6J); conditions: for number of PNA+CAR+ cones (cone survival) / numbers of subretinal IBA1+ MPs: day 7 after RD, subretinal injection in diluted sodium hyaluronate (insulin 2 IU/ml, IGF-1 200 ng/ml, metformin 50 mg/ml), compared to PBS controls
Method: Wild-type (C57BL/6J) mice were purchased from Janvier Labs at the age of 8 weeks. Mice were housed in the animal facility under specific pathogen-free condition, in a 12 h/12 h light/dark (100-500 lux) cycle with water and normal diet food available ad libitum. All experimental protocols and procedures were approved by the local animal care ethics committee (N°APAFIS#5201-20160427103344).
RD was induced with a previously described method (Nakazawa et al., 2006, 2007a, 2011). Briefly, mice were anesthetized with an intraperitoneal injection of xylazine hydrochloride (10 mg/kg) and ketamine hydrochloride (100 mg/kg) and pupils were dilated with topical phenylephrine (5%) and tropicamide (0.5%). A 30-gauge needle was first used to create two sclerotomies 1.5 mm posterior to the limbus. A glass needle (with a […] manually beveled tip) connected to a Hamilton syringe filled with diluted sodium hyaluronate (Healon GV®, Alcon) was then introduced into the vitreous cavity through one of the sclerotomy. The tip of the needle was finally inserted into the subretinal space through a peripheral retinotomy and 4 µl of diluted sodium hyaluronate containing or not recombinant human TSP-1 (100 µg/ml, Biotechne), human insulin (2 IU/ml, Umuline NPH), recombinant IGF-1 (200 ng/ml, Biotechne) or metformin (50 mg/ml), was gently injected, detaching approximately two-third of the retina from the underlying RPE.
For treatment with rosiglitazone, mice received intraperitoneal injections of 10 mg/kg rosiglitazone or vehicle (5% DMSO) 3 days before and 4 to 7 days after RD induction.
Eyes with subretinal hemorrhage were excluded from analysis. Mice were sacrificed from 1 to 10 days following RD, according to the experiment.
Eyes were enucleated, fixed in 4% paraformaldehyde for 1 hour at room temperature and sectioned at the limbus; the cornea and lens were discarded. The retinas were peeled from the RPE/choroid/sclera and incubated overnight at 4° C. in PBS-1% triton with the following primary antibodies: peanut agglutinin Alexa fluor® 594 (Thermo Fisher Scientific; 1/100), rabbit polyclonal anti-human cone arrestin antibody (LUMIF-hCAR; 1:10000) and goat polyclonal anti-IBA1 (1/100). After few washes, the retinas were incubated for 2 hours at room temperature with appropriate Alexa Fluor® conjugated secondary antibodies (Thermo Fisher Scientific; 1:500) in PBS-1% triton and nuclei were counterstained with Hoechst (1:1000, Sigma Aldrich). The retinas were flat mounted and viewed with a fluorescence microscope (DM5500, Leica). Images centered on the area with the lowest number of PNA+ cone arrestin+ cells were captured with a confocal laser-scanning microscope (FV1000, Olympus) using a 40X lens. Each cell population was manually counted in a masked fashion. IBA-1+ cells were quantified on flat mounts on the outer segment side of the detached retina while PNA+ cone arrestin+ cells were counted on confocal microscopy Z-stacks using ImageJ software.

PNA+CAR+ cones after addition of insulin receptor inhibitor ([1]; high glucose DMEM with human insulin, HNMPA 1 mM, versus vehicle (DMSO)) | Compound | number of PNA+CAR+ cones (cone survival) [2] | numbers of subretinal IBA1+ MPs [2] | number of infiltration of subretinal IBA-1+ MPs ([2]; day 7 of RD, daily intraperitoneal 10 mg/kg from 3 days before and throughout RD, versus vehicle (DMSO 5%)) | cone survival (PNA+CAR+ cones) ([1]; high glucose (25 mM) DMEM, human insulin 5 mIU/ml, compared to the control condition)
severe loss | O=P(O)(O)C(O)c1ccc2ccccc2c1 (stereo not drawn) [HNMPA, Hydroxy-2-naphthalenylmethylphosphonic acid, reference compound] |  |  |  | 
 | CN(C)C(=N)N=C(N)N [metformin, reference compound] | increased | significantly decreased |  | 
 | CN(CCOc1ccc(CC2SC(=O)NC2=O)cc1)c1ccccn1 (stereo not drawn) [rosiglitazone, reference compound] |  |  | no effect | 
 | IGF-1: recombinant IGF-1 (Biotechne), insulin-like growth factor | no effect | no effect |  | 
 | insulin: human insulin (Umuline NPH) | very significantly increased | did not alter |  | significantly increased
